Reference: patent US20240067693A1, “POLYPEPTIDES AND USES THEREOF” (MEDIMMUNE LIMITED, priority 2020, published 2024)
Numbered stars: 1 amine (or outer) side, 2 acyl side, 3 side chain; on linkers, the order of the positions; unused ones are H or OH. Bridge positions count the residues as written; N and C are the ends. Square brackets hold non-standard residues; d marks the D form. Side chains are listed from the residue outwards. Peptide text beside a SMILES is read from it. * marks the point of attachment. C20 diacid = O=C(O)CCCCCCCCCCCCCCCCCCC(=O)*; C18 diacid = O=C(O)CCCCCCCCCCCCCCCCC(=O)*; γGlu = O=C(O)[C@H](CCC(=O)[*:2])N[*:1]; AEEA = NCCOCCOCC(=O)O; Aib = CC(C)(N)C(=O)O

Tests used:
[1] = test system: lean rats; test: Rat acute food intake study; format: in vivo; conditions: lean male Sprague Dawley rats, 20 nmol/kg subcutaneously
Method in brief: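 Male Sprague Dawley rats (n=7/group), fasted 6 h, received 20 nmol/kg test compound or 60 nmol/kg pramlintide subcutaneously 30 min before food return at dark onset. Food intake recorded automatically in home cages over 3 days, binned hourly and analysed as cumulative dark-period intake; body weight taken daily.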

[2] = Thioflavin T fibrillation assay; format: physicochemical; conditions: for Time taken to detect increase in fluorescence intensity: ThT fibrillation assay, peptide 1 mg/mL in 25 mM sodium acetate buffer pH 4.0, 6 days at 37 °C with shaking, >144 h = no increase; for fibril-forming tendency: ThT assay, 1 mg/mL, pH 4.0, 37 °C, compared to pramlintide
Method in brief: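 Peptides at 1 mg/mL in 25 mM sodium acetate pH 4.0 with ThT (from 0.25 mM stock), incubated 6 days at 37 °C with intermittent orbital shaking at 500–750 rpm. Fluorescence (ex 444/em 480 nm) read every 30 min; value is average time to a rise in baseline-corrected signal.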

[3] = biological target: T1, rat amylin receptor (calcitonin receptor co-expressed with receptor activity modifying protein, RAMP3) (Rat AMYR3) (Rattus norvegicus, UniProt P32214+Q9JJ73); test: cAMP production in HEK cells with stable recombinant expression of rat amylin receptor (Rat AMYR3); format: cell-based; conditions: assay buffer with 0.1% BSA
T1 construct: expressed in transfected cells
T1 sequence (P32214 25-516): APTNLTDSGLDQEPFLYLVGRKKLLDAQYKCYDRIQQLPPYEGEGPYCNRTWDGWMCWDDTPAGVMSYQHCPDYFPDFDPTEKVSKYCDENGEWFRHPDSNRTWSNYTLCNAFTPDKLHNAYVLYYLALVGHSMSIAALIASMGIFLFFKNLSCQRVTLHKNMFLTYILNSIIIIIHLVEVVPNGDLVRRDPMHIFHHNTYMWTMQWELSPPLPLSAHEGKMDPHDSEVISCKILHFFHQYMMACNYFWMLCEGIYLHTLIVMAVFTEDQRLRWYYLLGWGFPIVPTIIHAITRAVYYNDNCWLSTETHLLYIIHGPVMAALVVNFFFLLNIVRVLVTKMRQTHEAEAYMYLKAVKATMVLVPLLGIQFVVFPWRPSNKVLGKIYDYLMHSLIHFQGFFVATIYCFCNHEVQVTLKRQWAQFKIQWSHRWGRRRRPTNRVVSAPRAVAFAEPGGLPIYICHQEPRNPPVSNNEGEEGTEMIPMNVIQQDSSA
T1 sequence (Q9JJ73 23-147 partner): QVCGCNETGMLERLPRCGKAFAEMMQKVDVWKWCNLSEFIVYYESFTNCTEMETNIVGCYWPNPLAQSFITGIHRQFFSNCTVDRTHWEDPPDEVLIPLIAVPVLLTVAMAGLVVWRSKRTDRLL
Method in brief: (§1)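 Thawed cells in HBSS/0.1% BSA/25 mM HEPES pH 7.4 with 0.5 mM IBMX were incubated with peptides 30 min at room temperature; cAMP read by HTRF. EC50 from 4-parameter fit of % activation relative to maximal amylin or calcitonin effect.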

[4] = biological target: T2, rat calcitonin receptor (rat CTR) (Rattus norvegicus, UniProt P32214); test: cAMP production in HEK cells with stable recombinant expression of rat calcitonin receptor (rat CTR); format: cell-based; conditions: assay buffer with 0.1% BSA
T2 construct: expressed in transfected cells
T2 sequence (P32214 25-516): T1 sequence (P32214 25-516)
Method in brief: as §1

| Structure (SMILES) | Cummulative food intake (% vehicle treated intake) At 12 h [1] [% vehicle treated intake] | Cummulative food intake (% vehicle treated intake) At 24 h [1] [% vehicle treated intake] | Cummulative food intake (% vehicle treated intake) At 48 h [1] [% vehicle treated intake] | Time taken to detect increase in fluorescence intensity [2] [h] | EC50 [3] [pM] | EC50 [4] [pM] | fibril-forming tendency [2] |
| --- | --- | --- | --- | --- | --- | --- | --- |
| CC[C@H](C)[C@H](NC(=O)[C@@H]1CCCN1C(=O)CNC(=O)[C@H](Cc1ccccc1)NC(=O)[C@H](CC(N)=O)NC(=O)C(C)(C)NC(=O)[C@H](CO)NC(=O)[C@H](CO)NC(=O)[C@H](Cc1c[nH]cn1)NC(=O)[C@H](CCCNC(=N)N)NC(=O)[C@H](CC(C)C)NC(=O)[C@H](Cc1ccccc1)NC(=O)[C@H](CC(N)=O)NC(=O)[C@H](C)NC(=O)[C@H](CC(C)C)NC(=O)[C@H](CCCNC(=N)N)NC(=O)[C@H](CCC(N)=O)NC(=O)[C@@H](NC(=O)[C@H](C)NC(=O)[C@@H]1CSSC[C@H](NC(=O)[C@@H](N)CCCCNC(=O)CC[C@H](NC(=O)CCCCCCCCCCCCCCCCC(=O)O)C(=O)O)C(=O)N[C@@H](CC(N)=O)C(=O)N[C@@H]([C@@H](C)O)C(=O)N[C@@H](C)C(=O)N[C@@H]([C@@H](C)O)C(=O)N1)[C@@H](C)O)C(=O)N[C@@H](CC(C)C)C(=O)N1CCC[C@H]1C(=O)N1CCC[C@H]1C(=O)N[C@H](C(=O)N[C@@H](CCC(=O)O)C(=O)N[C@H](C(=O)NCC(=O)N[C@@H](CO)C(=O)N[C@@H](CC(N)=O)C(=O)N[C@H](C(=O)N[C@@H](Cc1ccc(O)cc1)C(N)=O)[C@@H](C)O)C(C)C)[C@@H](C)O [Peptide 44, K(γE-C18diacid)[CNTATC]ATQRLANFLRHSS(Aib)NFGPILPPTEVGSNTY-amide] (H-K([γGlu-C18 diacid])CNTATCATQRLANFLRHSS[Aib]NFGPILPPTEVGSNTY-NH2; disulfide 2-7; N-terminus assumed) | 33.5 | 39.2 | 60.7 | >144 | 18.5 | 2240 | – |
| CC[C@H](C)[C@H](NC(=O)[C@@H]1CCCN1C(=O)CNC(=O)[C@H](Cc1ccccc1)NC(=O)[C@H](CC(N)=O)NC(=O)C(C)(C)NC(=O)[C@H](CO)NC(=O)[C@H](CO)NC(=O)[C@H](Cc1c[nH]cn1)NC(=O)[C@H](CCCNC(=N)N)NC(=O)[C@H](CC(C)C)NC(=O)[C@H](Cc1ccccc1)NC(=O)[C@H](CC(N)=O)NC(=O)[C@H](C)NC(=O)[C@H](CC(C)C)NC(=O)[C@H](CCCNC(=N)N)NC(=O)[C@H](CCC(N)=O)NC(=O)[C@@H](NC(=O)[C@H](C)NC(=O)[C@@H]1CSSC[C@H](NC(=O)[C@@H](N)CCCCNC(=O)CC[C@H](NC(=O)CCCCCCCCCCCCCCCCC(=O)O)C(=O)O)C(=O)N[C@@H](CC(N)=O)C(=O)N[C@@H]([C@@H](C)O)C(=O)N[C@@H](C)C(=O)N[C@@H]([C@@H](C)O)C(=O)N1)[C@@H](C)O)C(=O)N[C@@H](CC(C)C)C(=O)N1CCC[C@H]1C(=O)N1CCC[C@H]1C(=O)N[C@H](C(=O)N[C@@H](CC(N)=O)C(=O)N[C@H](C(=O)NCC(=O)N[C@@H](CO)C(=O)N[C@@H](CC(N)=O)C(=O)N[C@H](C(=O)N[C@@H](Cc1ccc(O)cc1)C(N)=O)[C@@H](C)O)C(C)C)[C@@H](C)O [Peptide 48, K(γE-C18diacid)[CNTATC]ATQRLANFLRHSS(Aib)NFGPILPPTNVGSNTY-amide] (H-K([γGlu-C18 diacid])CNTATCATQRLANFLRHSS[Aib]NFGPILPPTNVGSNTY-NH2; disulfide 2-7; N-terminus assumed) | 27.5 | 32.6 | 57.1 | >144 | 4.8 | 2430 | – |
| CC[C@H](C)[C@H](NC(=O)[C@@H]1CCCN1C(=O)CNC(=O)[C@H](Cc1ccccc1)NC(=O)[C@H](CC(N)=O)NC(=O)[C@H](CC(N)=O)NC(=O)[C@H](CO)NC(=O)[C@H](CO)NC(=O)[C@H](Cc1c[nH]cn1)NC(=O)[C@@H](NC(=O)[C@H](CC(C)C)NC(=O)[C@H](Cc1ccccc1)NC(=O)[C@H](CC(N)=O)NC(=O)[C@H](C)NC(=O)[C@H](CC(C)C)NC(=O)[C@H](CCCNC(=N)N)NC(=O)[C@H](CCC(N)=O)NC(=O)[C@@H](NC(=O)[C@H](C)NC(=O)[C@@H]1CSSC[C@H](NC(=O)[C@H](CCCCN)NC(=O)CC[C@H](NC(=O)CCCCCCCCCCCCCCCCCCC(=O)O)C(=O)O)C(=O)N[C@@H](CC(N)=O)C(=O)N[C@@H]([C@@H](C)O)C(=O)N[C@@H](C)C(=O)N[C@@H]([C@@H](C)O)C(=O)N1)[C@@H](C)O)C(C)C)C(=O)N[C@@H](CC(C)C)C(=O)N1CCC[C@H]1C(=O)N1CCC[C@H]1C(=O)N[C@H](C(=O)N[C@@H](CC(N)=O)C(=O)N[C@H](C(=O)NCC(=O)N[C@@H](CO)C(=O)N[C@@H](CC(N)=O)C(=O)N[C@H](C(=O)N[C@@H](Cc1ccc(O)cc1)C(N)=O)[C@@H](C)O)C(C)C)[C@@H](C)O [Peptide 112] ({C20 diacid-γGlu}-KCNTATCATQRLANFLVHSSNNFGPILPPTNVGSNTY-NH2; disulfide 2-7) | 15.8 | 15.9 | 22.1 | <5 | 16 | 258 | increases the fibril-forming tendency |
| CC[C@H](C)[C@H](NC(=O)[C@@H]1CCCN1C(=O)CNC(=O)[C@H](Cc1ccccc1)NC(=O)[C@H](CC(N)=O)NC(=O)[C@H](CC(N)=O)NC(=O)[C@H](CO)NC(=O)[C@H](CO)NC(=O)[C@H](Cc1c[nH]cn1)NC(=O)[C@@H](NC(=O)[C@H](CC(C)C)NC(=O)[C@H](Cc1ccccc1)NC(=O)[C@H](CC(N)=O)NC(=O)[C@H](C)NC(=O)[C@H](CC(C)C)NC(=O)[C@H](CCCNC(=N)N)NC(=O)[C@H](CCC(N)=O)NC(=O)[C@@H](NC(=O)[C@H](C)NC(=O)[C@@H]1CSSC[C@H](NC(=O)[C@H](CCCCN)NC(=O)COCCOCCNC(=O)COCCOCCNC(=O)CC[C@H](NC(=O)CCCCCCCCCCCCCCCCCCC(=O)O)C(=O)O)C(=O)N[C@@H](CC(N)=O)C(=O)N[C@@H]([C@@H](C)O)C(=O)N[C@@H](C)C(=O)N[C@@H]([C@@H](C)O)C(=O)N1)[C@@H](C)O)C(C)C)C(=O)N[C@@H](CC(C)C)C(=O)N1CCC[C@H]1C(=O)N1CCC[C@H]1C(=O)N[C@H](C(=O)N[C@@H](CC(N)=O)C(=O)N[C@H](C(=O)NCC(=O)N[C@@H](CO)C(=O)N[C@@H](CC(N)=O)C(=O)N[C@H](C(=O)N[C@@H](Cc1ccc(O)cc1)C(N)=O)[C@@H](C)O)C(C)C)[C@@H](C)O [Peptide 113] ({C20 diacid-γGlu-AEEA-AEEA}-KCNTATCATQRLANFLVHSSNNFGPILPPTNVGSNTY-NH2; disulfide 2-7) | 69.5 | 65.8 | 77.9 | <5 | 32.6 | 10400 | increases the fibril-forming tendency |
